Laboratory results from EP4800013A1, “PARG INHIBITOR” (Shanghai Qilu Pharmaceutical Research and Development …, priority 2023, dated 2025).
pIC50: −log10 of the molar value.

These molecules were tested on KURAMOCHI cells (assay: Inhibition of proliferation of KURAMOCHI cells (CellTiter-Glo, intracellular ATP)). Details: 168 h, incubated for 7 days, read-out: IC50 against KURAMOCHI cells.
Assay type: cell-based
Procedure: In this experiment, the inhibitory effect of the compounds of the present disclosure on the proliferation of the cancer cell line KURAMOCHI was evaluated by measuring intracellular ATP levels using a bioluminescent assay, and the half maximal inhibitory concentration (IC50) was determined.
RPMI 1640 medium (Cat. No. 11875-093), fetal bovine serum (10099-141), and 100× Pen/Strep (15070-063) were purchased from GIBCO. CellTiter-Glo Luminescent Cell Viability Assay reagent (Cat. No. G7573) was purchased from Promega.
• 1) Day 1: KURAMOCHI cells were counted using a cell counter and seeded into a 96-well culture plate at a density of 4000 cells per well in 100 µL medium. The plate was incubated overnight in an incubator (37°C, 5% CO2). • 2) Day 2: Using a D300e digital dispenser (TECAN), 500 nL of serially diluted test compounds of the present disclosure (starting at 10 µM, a total of 9 concentrations, 1:4 dilution) were added to the cells in the culture plate. The final concentration of DMSO was 0.5%. The cell culture plate was incubated for 7 days in a cell culture incubator (37°C, 5% CO2). Control group 1 received only medium and DMSO (100% inhibition group). Control group 2 received only DMSO (0% inhibition group). The final concentration of DMSO in both groups was 0.5%. • 3) Day 9: 100 µL of CellTiter-Glo reagent was added to each well. The plate was shaken at 500 rpm for 2 minutes, centrifuged at 1000 rpm for 1 minute, and then incubated at room temperature in the dark for 10 minutes to stabilize the luminescence signal. • 4) Luminescence signals were measured using an EnVision microplate reader (PerkinElmer). • 5) Data analysis was performed using GraphPad Prism 8. The IC50 values of the compounds of the present disclosure were calculated as follows. The CTG signal values were analyzed. The average inhibition rate of control group 1 (100% inhibition group) was set as the relative inhibition rate of 100%. The average inhibition rate of control group 2 (0% inhibition group) was set as the relative inhibition rate of 0%. The CTG signal values were converted into relative inhibition rates. The inhibition percentage (inhibition%) for each concentration of the compounds of the present disclosure was calculated according to the following formula: Inhibition% = (b−x)/(b−a)*100%; [formula] • a = CTG value (highest concentration), b = CTG value (blank well), x = CTG value (test well). • IC50 was calculated using GraphPad Prism 8. • (1) The concentration and inhibition rate corresponding to each well were recorded. Statistical calculation was performed using Log10 (compound concentration). • (2) The data were input into GraphPad Prism 8 and Analysis was selected. • (3) Nonlinear regression (curve fit) was selected. • (4) Log (inhibitor) vs. response - Variable slope was selected. • (5) The calculation formula was selected, and the calculation was performed according to the following formula: Y = Bottom + (Top - Bottom) / (1 + 10 ^ ((LogIC50 - X) * HillSlope)); X: log of dose or concentration; Y: response; Top and Bottom: maximum and minimum response. • (6) The IC50 values were calculated by fitting the data. Table 16: Inhibitory effect of the compounds of the present disclosure on the proliferation of KURAMOCHI cells

With C=CCn1c(=O)n(-c2nnc(C(F)F)s2)c2cc(S(=O)(=O)NC3(C#N)CC3)cc(N3CCN(S(=N)(=O)C(C)C)CC3)c21 (centres unmarked) [Compound 074G] as the molecule, how does the pIC50 read?
Its pIC50 is 7.40.

How did the pIC50 turn out when C=CCn1c(=O)n(-c2nnc(C(F)F)s2)c2cc(S(=O)(=O)NC3(C#N)CC3)cc(N3CCN(S(=O)(=O)N(C)C)CC3)c21 [Compound 074H] was run?
Its pIC50 is 7.92.

With C#CCn1c(=O)n(-c2nnc(C(F)F)s2)c2cc(S(=O)(=O)NC3(C#N)CC3)cc(N3CCN(C(=O)C(C)C)CC3)c21 [Compound 074K] as the molecule, how does the pIC50 read?
Its pIC50 is 8.10.

C=CCn1c(=O)n(-c2nnc(C(F)F)s2)c2cc(S(=O)(=O)NC3(C#N)CC3)cc(N3CCN([S+]([O-])C(C)C)CC3)c21 (centres unmarked) [Compound 074M] was tested. Which pIC50 did it give?
The pIC50 was 7.80.

C=CCn1c(=O)n(-c2nnc(C(F)F)s2)c2cc(S(=O)(=O)NC3(C#N)CC3)cc(N3CCN(C(=O)C4CCCN4C(=O)OC)CC3)c21 (centres unmarked) [Compound 076E] was tested. Which pIC50 did it give?
Its pIC50 is 7.46.

C=CCn1c(=O)n(-c2nnc(C(F)F)s2)c2cc(S(=O)(=O)NC3(C#N)CC3)cc(N3CCN(C(=O)[C@@H]4CCCO4)CC3)c21 [Compound 076H1] was tested. Which pIC50 did it give?
Its pIC50 is 7.47.

With C=CCn1c(=O)n(-c2nnc(C(F)F)s2)c2cc(S(=O)(=O)NC3(C#N)CC3)cc(N3CCN(C(=O)[C@H]4CCCO4)CC3)c21 [Compound 076H2] as the molecule, how does the pIC50 read?
The pIC50 was 7.40.

C=CCn1c(=O)n(-c2nnc(C(F)F)s2)c2cc(S(=O)(=O)NC3(C#N)CC3)cc(N3CCN(C(=O)C4(C)CCCO4)CC3)c21 (centres unmarked) [Compound 076J] was tested. Which pIC50 did it give?
The pIC50 was 8.05.

With C[C@H]1CN(c2cc(S(=O)(=O)NC3(C#N)CC3)cc3c2nc(OC2CC2)n3-c2nnc(C(F)F)s2)C[C@H](C)N1 [Compound 077A] as the molecule, how does the pIC50 read?
Its pIC50 is 7.96.

C[C@H]1CN(c2cc(S(=O)(=O)NC3(C)CC3)cc3c2nc(C2CCCO2)n3-c2nnc(C(F)F)s2)C[C@H](C)N1 (some centres unmarked) [Compound 077B] was tested. Which pIC50 did it give?
Its pIC50 is 8.15.

How did the pIC50 turn out when C[C@H]1CN(c2cc(S(=O)(=O)NC3(C)CC3)cc3c2nc(OC2CC2)n3-c2nnc(C(F)F)s2)C[C@H](C)N1 [Compound 077F] was run?
Its pIC50 is 8.05.

With CC(C)Oc1nc2c(N3C[C@H](C)N[C@@H](C)C3)cc(S(=O)(=O)NC3(C)CC3)cc2n1-c1nnc(C(F)F)s1 [Compound 077G] as the molecule, how does the pIC50 read?
Its pIC50 is 8.70.

CC(C)Oc1nc2c(N3C[C@H](C)N[C@@H](C)C3)cc(S(=O)(=O)NC3(C#N)CC3)cc2n1-c1nnc(C(F)F)s1 [Compound 077H] was tested. Which pIC50 did it give?
The pIC50 was 8.30.

With C[C@H]1CN(c2cc(S(=O)(=O)NC3(C)CC3)cc3c2nc(C2COCCO2)n3-c2nnc(C(F)F)s2)C[C@H](C)N1 (some centres unmarked) [Compound 077N] as the molecule, how does the pIC50 read?
The pIC50 was 8.10.

COCc1nc2c(N3C[C@H](C)N[C@@H](C)C3)cc(S(=O)(=O)NC3(C)CC3)cc2n1-c1nnc(C(F)F)s1 [Compound 077T] was tested. Which pIC50 did it give?
Its pIC50 is 7.46.

How did the pIC50 turn out when C[C@H]1CN(c2cc(S(=O)(=O)NC3(C)CC3)cc3c2nc(N2CCOCC2)n3-c2nnc(C(F)F)s2)C[C@H](C)N1 [Compound 077V] was run?
The pIC50 was 7.43.

The molecules below were run against T1, PARG (Homo sapiens, UniProt Q86W56) (assay: Enzymatic inhibitory activity against PARG, HTRF assay). Details: HTRF; PARylated PARP1 protein as substrate; 60 minutes at room temperature; read-out: IC50 against PARG enzyme.
T1 construct: made in house
Assay type: biochemical
Procedure: In this experiment, the enzymatic inhibitory activity of the compounds of the present disclosure against PARG was determined using an HTRF (homogeneous time-resolved fluorescence) assay.
HTRF assay reagents were purchased from PerkinElmer (Cat. Nos. 61HISTLB and 610SAXLB). The purified protein was prepared in-house.
PARG enzyme reaction buffer: 50 mM Tris (pH 7.4), 0.1 mg/mL BSA, 3 mM EDTA, 0.4 mM EGTA, 1 mM DTT, 50 mM KCl, and 0.01% Tween 20.
• 1) Using an ultra-micro pipette, the compounds of the present disclosure were serially diluted (starting at 10 µM with 3- to 5-fold serial dilutions) and added to a 384-well reaction plate, with each concentration tested in duplicate wells. Control group 1 was added with 10 µM control compound (100% inhibition group). Control group 2 was added with DMSO (0% inhibition group). After compound addition, the 384-well plate was centrifuged at 1000 rpm for 1 minute. • 2) 2.5 µL of PARG protein was added to each well and incubated with the compounds of the present disclosure at room temperature for 15 minutes, followed by centrifugation at 1000 rpm for 1 minute. • 3) 2.5 µL of PARylated PARP1 protein was added to each well and incubated at room temperature for 60 minutes, followed by centrifugation at 1000 rpm for 1 minute. • 4) 5 µL of His-Tb & SA-XL665 HTRF assay reagents were added to each well and incubated at room temperature for 60 minutes, followed by centrifugation at 1000 rpm for 1 minute. • 5) […] were measured using a PHERAstar FSX microplate reader from BMG. • 6) Data analysis was performed using GraphPad Prism 8. The IC50 values of the compounds of the present disclosure were calculated as follows. […] The average value of duplicate wells in control group 2 (0% inhibition group) was set as the relative inhibition rate of 0%. The HTRF signal values were converted into relative inhibition rates. The IC50 values of the compounds were calculated by fitting the data to a four-parameter logistic model. Table 15: Enzymatic inhibitory activity of the compounds of the present disclosure against PARG

T1 sequence (Q86W56 whole entry): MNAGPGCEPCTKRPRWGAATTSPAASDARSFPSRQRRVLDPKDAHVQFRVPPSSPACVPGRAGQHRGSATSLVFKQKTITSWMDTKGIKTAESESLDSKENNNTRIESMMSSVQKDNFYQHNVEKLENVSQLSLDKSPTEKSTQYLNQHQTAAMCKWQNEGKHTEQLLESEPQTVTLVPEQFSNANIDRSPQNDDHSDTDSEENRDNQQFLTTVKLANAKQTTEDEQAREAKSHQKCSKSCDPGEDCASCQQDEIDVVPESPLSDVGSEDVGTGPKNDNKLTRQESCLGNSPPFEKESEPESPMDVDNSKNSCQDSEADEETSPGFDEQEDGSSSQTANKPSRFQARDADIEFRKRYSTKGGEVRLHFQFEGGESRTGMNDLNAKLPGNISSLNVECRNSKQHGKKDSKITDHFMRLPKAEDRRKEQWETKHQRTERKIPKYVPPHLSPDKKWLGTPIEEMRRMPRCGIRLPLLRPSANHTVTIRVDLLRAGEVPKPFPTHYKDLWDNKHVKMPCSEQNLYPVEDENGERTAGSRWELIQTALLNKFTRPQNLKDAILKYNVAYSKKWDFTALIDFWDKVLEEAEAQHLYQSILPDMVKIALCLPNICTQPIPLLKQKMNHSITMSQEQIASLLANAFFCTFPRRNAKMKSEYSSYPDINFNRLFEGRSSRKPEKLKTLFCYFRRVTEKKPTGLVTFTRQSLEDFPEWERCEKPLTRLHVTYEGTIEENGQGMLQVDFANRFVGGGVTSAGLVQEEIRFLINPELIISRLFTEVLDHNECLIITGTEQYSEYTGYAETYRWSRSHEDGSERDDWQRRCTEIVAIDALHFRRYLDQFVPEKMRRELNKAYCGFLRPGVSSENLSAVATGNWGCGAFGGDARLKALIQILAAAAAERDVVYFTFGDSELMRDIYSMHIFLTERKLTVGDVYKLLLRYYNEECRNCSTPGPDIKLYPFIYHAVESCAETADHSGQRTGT

C=CCn1c(=O)n(-c2nnc(C(F)F)s2)c2cc(S(=O)(=O)NC3(C#N)CC3)cc(N3CCN(S(=N)(=O)C(C)C)CC3)c21 (centres unmarked) [Compound 074G] was tested. Which pIC50 did it give?
The pIC50 was 8.48.

C=CCn1c(=O)n(-c2nnc(C(F)F)s2)c2cc(S(=O)(=O)NC3(C#N)CC3)cc(N3CCN(S(=O)(=O)N(C)C)CC3)c21 [Compound 074H] was tested. Which pIC50 did it give?
Its pIC50 is 8.12.

C#CCn1c(=O)n(-c2nnc(C(F)F)s2)c2cc(S(=O)(=O)NC3(C#N)CC3)cc(N3CCN(C(=O)C(C)C)CC3)c21 [Compound 074K] was tested. Which pIC50 did it give?
Its pIC50 is 8.72.

C=CCn1c(=O)n(-c2nnc(C(F)F)s2)c2cc(S(=O)(=O)NC3(C#N)CC3)cc(N3CCN([S+]([O-])C(C)C)CC3)c21 (centres unmarked) [Compound 074M] was tested. Which pIC50 did it give?
The pIC50 was 8.21.

C=CCn1c(=O)n(-c2nnc(C(F)F)s2)c2cc(S(=O)(=O)NC3(C#N)CC3)cc(N3CCN(C(=O)C4CCCN4C(=O)OC)CC3)c21 (centres unmarked) [Compound 076E] was tested. Which pIC50 did it give?
Its pIC50 is 8.31.

How did the pIC50 turn out when C=CCn1c(=O)n(-c2nnc(C(F)F)s2)c2cc(S(=O)(=O)NC3(C#N)CC3)cc(N3CCN(C(=O)[C@@H]4CCCO4)CC3)c21 [Compound 076H1] was run?
The pIC50 was 7.84.

How did the pIC50 turn out when C=CCn1c(=O)n(-c2nnc(C(F)F)s2)c2cc(S(=O)(=O)NC3(C#N)CC3)cc(N3CCN(C(=O)[C@H]4CCCO4)CC3)c21 [Compound 076H2] was run?
Its pIC50 is 7.85.

With C=CCn1c(=O)n(-c2nnc(C(F)F)s2)c2cc(S(=O)(=O)NC3(C#N)CC3)cc(N3CCN(C(=O)C4(C)CCCO4)CC3)c21 (centres unmarked) [Compound 076J] as the molecule, how does the pIC50 read?
Its pIC50 is 8.15.

With C[C@H]1CN(c2cc(S(=O)(=O)NC3(C#N)CC3)cc3c2nc(OC2CC2)n3-c2nnc(C(F)F)s2)C[C@H](C)N1 [Compound 077A] as the molecule, how does the pIC50 read?
Its pIC50 is 7.98.

With C[C@H]1CN(c2cc(S(=O)(=O)NC3(C)CC3)cc3c2nc(C2CCCO2)n3-c2nnc(C(F)F)s2)C[C@H](C)N1 (some centres unmarked) [Compound 077B] as the molecule, how does the pIC50 read?
The pIC50 was 8.47.

How did the pIC50 turn out when C[C@H]1CN(c2cc(S(=O)(=O)NC3(C)CC3)cc3c2nc(OC2CC2)n3-c2nnc(C(F)F)s2)C[C@H](C)N1 [Compound 077F] was run?
The pIC50 was 8.04.

How did the pIC50 turn out when CC(C)Oc1nc2c(N3C[C@H](C)N[C@@H](C)C3)cc(S(=O)(=O)NC3(C)CC3)cc2n1-c1nnc(C(F)F)s1 [Compound 077G] was run?
Its pIC50 is 8.80.

With CC(C)Oc1nc2c(N3C[C@H](C)N[C@@H](C)C3)cc(S(=O)(=O)NC3(C#N)CC3)cc2n1-c1nnc(C(F)F)s1 [Compound 077H] as the molecule, how does the pIC50 read?
The pIC50 was 8.52.

How did the pIC50 turn out when C[C@H]1CN(c2cc(S(=O)(=O)NC3(C)CC3)cc3c2nc(C2COCCO2)n3-c2nnc(C(F)F)s2)C[C@H](C)N1 (some centres unmarked) [Compound 077N] was run?
Its pIC50 is 8.47.

How did the pIC50 turn out when COCc1nc2c(N3C[C@H](C)N[C@@H](C)C3)cc(S(=O)(=O)NC3(C)CC3)cc2n1-c1nnc(C(F)F)s1 [Compound 077T] was run?
Its pIC50 is 7.56.

How did the pIC50 turn out when C[C@H]1CN(c2cc(S(=O)(=O)NC3(C)CC3)cc3c2nc(N2CCOCC2)n3-c2nnc(C(F)F)s2)C[C@H](C)N1 [Compound 077V] was run?
The pIC50 was 7.66.
